Reference: patent publication US6683077B2, “2-Amino-benzoxazinones for the treatment of viral infections” (G.D. Searle & Co., priority 1996, dated 2004)

Experiments:
[1] = test system: human foreskin fibroblasts
[2] = target: T1, Bovine pancreas α-chymotrypsin (Bos taurus, UniProt P00766, DEL14-15/DEL147-148); experiment: Chymotrypsin assay; format: biochemical
T1 construct: Bovine pancreas α-chymotrypsin (type II, Sigma); purchased Sigma type II; host or cells: bovine pancreas
Method: The chymotrypsin assay was modified from the method of Delmar et al [Anal. Biochem., 99, 316-320 (1979)]. Bovine pancreas α-chymotrypsin (type II, Sigma) was dissolved in 0.001 N HCl at 1 mg/ml and further diluted 1/600 in assay buffer (0.1 M Tris, pH 7.8, containing 0.1 M CaCl2) before use. 20 μl of test compound in DMSO (or DMSO alone), 100 μl of assay buffer and 30 μl of enzyme were added to […], mixed and pre-incubated for 30 minutes at ambient temperature. Reaction was initiated by addition of 50 Al of 0.2 mM N-succinyl-Ala-Ala-Pro-Phe-p-nitroanilide (Sigma; 2 mM in DMSO diluted 1/10 in assay buffer before use). The increase in absorbance at 405 nm was monitored for 10 minutes with a Biotek EL340 plate reader.

[3] = target: HCMV protease (assemblin) (Human cytomegalovirus, UniProt P16753); experiment: Enzymatic assay for HCMV protease (assemblin) inhibitors; format: biochemical
Sequence of HCMV protease (assemblin) (P16753 1-256): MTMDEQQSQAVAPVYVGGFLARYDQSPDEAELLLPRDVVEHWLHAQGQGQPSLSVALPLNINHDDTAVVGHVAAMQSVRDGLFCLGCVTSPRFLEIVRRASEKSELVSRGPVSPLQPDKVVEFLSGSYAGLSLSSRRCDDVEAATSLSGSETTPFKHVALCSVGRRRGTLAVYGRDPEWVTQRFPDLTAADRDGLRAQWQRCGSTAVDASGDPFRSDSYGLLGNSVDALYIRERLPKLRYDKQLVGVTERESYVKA

[4] = test system: HCMV engineered virus RC256; experiment: microbe, parasite or virus in culture; format: cell-based, human cytomegalovirus; details: Human betaherpesvirus 5, Fibroblast, read-out: Antiviral Activity RC256, first value (EC50)

Compound	Antiviral Activity RC256, second value (cytotoxicity) [1]	Chymotrypsin, % @ concentration ([2]; @ 10 (concentration unit not given)) [% @ 10]	IC50 [3] [nM]	IC50 [2] [nM]	EC50 [4] [nM]
1,1-Dimethylethyl[2-[[1S-[(4-methoxyphenyl)methyl]-2-oxo-2-[[2-(2-pyridinyl)ethyl]amino]ethyl]amino]-5-methyl-4-oxo-4H-3,1-benzoxazin-6-yl]carbamate [Example 6hh]	60	21	–	–	–
COc1ccc(C[C@H](Nc2nc3ccc(NC(=O)Oc4ccccc4)c(C)c3c(=O)o2)C(=O)N(C)Cc2ccccc2)cc1 [Example 11q, Phenyl[2-[[1S-[(4-methoxyphenyl)methyl]-2-[methyl(phenylmethyl)amino]-2-oxcethyl]amino]-5-methyl-4H-3,1-benzoxazin-6-yl]carbamate]	–	–	600	2400	18000
